Experimental data taken from paper PMC9408887 (International Journal of Molecular Sciences, 2022).
Where two headings read alike, the source gives them in different places.

Columns and labels:
[1] = tested on: Bla2; conditions: cited from earlier work
[2] = molecular target: T1, Bla2 (Bacillus anthracis, UniProt Q93T40); test: biochemical; type: biochemical
[3] = molecular target: T1, Bla2; type: biochemical

T1 sequence (Q93T40 1-256): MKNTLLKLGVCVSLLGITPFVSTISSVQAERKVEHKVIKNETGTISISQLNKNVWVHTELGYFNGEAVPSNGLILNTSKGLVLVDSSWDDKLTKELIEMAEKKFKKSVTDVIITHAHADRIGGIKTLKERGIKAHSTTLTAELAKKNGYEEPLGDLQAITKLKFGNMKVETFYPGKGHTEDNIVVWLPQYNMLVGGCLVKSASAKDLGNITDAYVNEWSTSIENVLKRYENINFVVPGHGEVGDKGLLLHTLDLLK

Row | Compound | inhibition [1] | IC50 [2] [µM] | IC50 ([2]; pH 7, read-out: IC50) [µM] | Ki [3] [µM] | mode of inhibition [3] | Ki ([3]; pH 7) [µM]
1 | CCCCCCCOc1cccc(C(=O)NO)c1 [3-(heptyloxy)-N-hydroxybenzamide] | no inhibition |  |  |  |  | 
2 | O=C(CCCCCOc1cccc(C(=O)NO)c1)NO [N-hydroxy-3-((6-(hydroxyamino)-6-oxohexyl)oxy)benzamide] | significant inhibition |  |  |  |  | 
3 | O=C(CCCCCCC(=O)Nc1ccccc1)NO [SAHA, suberoylanilide hydroxamic acid, reference compound] |  | > 100 |  |  |  | 
4 | N-hydroxy-4-(7-(hydroxyamino)-7-oxoheptyl)-3-methoxybenzamide [Compound 6] |  |  | 14.9 ± 9.8 | 4.7 ± 1.4 | competitive inhibition | 4.7 ± 1.4
5 | 3-chloro-N-hydroxy-4-(7-(hydroxyamino)-7-oxoheptyl)benzamide [Compound 4] |  |  | 20 ± 5 | 6.4 ± 1.7 | competitive inhibition | 6.4 ± 1.7
